In patent US10131652B2, “Pyrimidinyloxy benzene derivatives as herbicides” (E. I. DU PONT DE NEMOURS AND COMPANY, priority 2014, dated 2018):

Assays:
Assay type in all cases: in vivo
[1] = test system: barnyardgrass (Echinochloa crus-galli); assay: Test B pre-/postemergence plant response
Procedure, shortened: (§1)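 Greenhouse pots, loam/sand soil; compound formulated with surfactant in non-phytotoxic solvent. Preemergence soil spray and postemergence spray at 1–2 leaf stage run simultaneously. Visual injury, 0–100, about 10 days post-treatment.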

[2] = test system: pigweed (Amaranthus retroflexus); assay: Test B pre-/postemergence plant response
Procedure, shortened: as §1

[3] = test system: wheat (Triticum aestivum); assay: Test B pre-/postemergence plant response
Procedure, shortened: as §1

[4] = test system: giant foxtail (Setaria faberii); assay: Test B pre-/postemergence plant response
Procedure, shortened: as §1

corn (Zea mays) [5] = assay: Test B pre-/postemergence plant response
Procedure, shortened: as §1

[6] = test system: galium (catchweed bedstraw, Galium aparine); assay: Test D pre-/postemergence plant response; conditions: for Plant response rating, Galium: Preemergence
Procedure, shortened: (§2)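 Preemergence: seeds in loam/sand blend treated with test chemicals in non-phytotoxic solvent with surfactant; postemergence: plants at 2–18 cm (1- to 4-leaf stage) in peat-based medium sprayed likewise. Greenhouse 13 to 15 days, then visual rating vs controls, 0 (no effect) to 100 (complete control).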

[7] = test system: Italian ryegrass (Lolium multiflorum); assay: Test D pre-/postemergence plant response; conditions: for Plant response rating, Ryegrass, Italian: Preemergence
Procedure, shortened: as §2

[8] = test system: barnyardgrass (Echinochloa crus-galli); assay: Test D pre-/postemergence plant response; conditions: for Plant response rating (scale 0 to 100), Barnyardgrass / Barnyardgrass plant response rating: Postemergence; for Barnyardgrass plant response rating / Plant response rating, Barnyardgrass: scale 0 to 100 (0 no effect, 100 complete control); for Plant response rating, Barnyardgrass: Preemergence
Procedure, shortened: as §2

[9] = test system: morningglory (Ipomoea coccinea); assay: Test D pre-/postemergence plant response; conditions: for Plant response rating, Morningglory: Preemergence
Procedure, shortened: as §2

[10] = test system: pigweed (Amaranthus retroflexus); assay: Test D pre-/postemergence plant response; conditions: for Plant response rating, Pigweed: Preemergence
Procedure, shortened: as §2

[11] = test system: ragweed (common ragweed, Ambrosia elatior); assay: Test D pre-/postemergence plant response; conditions: for Plant response rating, Ragweed: Preemergence
Procedure, shortened: as §2

[12] = test system: giant foxtail (Setaria faberii); assay: Test D pre-/postemergence plant response; conditions: for Plant response rating (scale 0 to 100), Foxtail, Giant / Foxtail, Giant plant response rating: Postemergence; for Foxtail, Giant plant response rating / Plant response rating, Foxtail, Giant: scale 0 to 100 (0 no effect, 100 complete control); for Plant response rating, Foxtail, Giant: Preemergence
Procedure, shortened: as §2

[13] = test system: blackgrass (Alopecurus myosuroides); assay: Test D pre-/postemergence plant response; conditions: for Plant response rating (scale 0 to 100), Blackgrass / Blackgrass plant response rating: Postemergence; for Blackgrass plant response rating / Plant response rating, Blackgrass: scale 0 to 100 (0 no effect, 100 complete control); for Plant response rating, Blackgrass: Preemergence
Procedure, shortened: as §2

[14] = test system: lambsquarters (Chenopodium album); assay: Test D pre-/postemergence plant response; conditions: for Plant response rating, Lambsquarters: Preemergence
Procedure, shortened: as §2

corn (Zea mays) [15] = assay: Test D pre-/postemergence plant response; conditions: for Plant response rating (scale 0 to 100), Corn / Corn plant response rating: Postemergence; for Corn plant response rating / Plant response rating, Corn: scale 0 to 100 (0 no effect, 100 complete control); for Plant response rating, Corn: Preemergence
Procedure, shortened: as §2

[16] = test system: waterhemp (common waterhemp, Amaranthus rudis); assay: Test D pre-/postemergence plant response; conditions: for Plant response rating, Waterhemp: Preemergence
Procedure, shortened: as §2

[17] = 125 g ai/ha, postemergence, 0 to 100 scale, 0 no effect, 100 complete control
[18] = Postemergence, 500 g ai/ha, 0 to 100 scale (0 no effect, 100 complete control)
[19] = Preemergence, 125 g ai/ha, 0 to 100 scale (0 no effect, 100 complete control)
[20] = Preemergence, 500 g ai/ha, 0 to 100 scale where 0 is no effect and 100 is complete control
[21] = Postemergence, 31 g ai/ha, scale 0 to 100 (0 no effect, 100 complete control)
[22] = 4 g ai/ha, scale 0 to 100 (0 no effect, 100 complete control)
[23] = 8 g ai/ha, scale 0 to 100 (0 no effect, 100 complete control)
[24] = 16 g ai/ha, scale 0 to 100 (0 no effect, 100 complete control)
[25] = 31 g ai/ha, scale 0 to 100 (0 no effect, 100 complete control)

N#Cc1cccc(Oc2ncc(Cl)cn2)c1-c1cc(C(F)(F)F)on1 [Compound 157]
Plant response rating, Barnyardgrass [1, 17]: 20 | Plant response rating, Barnyardgrass [1, 18]: 60 | Barnyardgrass plant response rating [1, 19]: 20 | Plant response rating, Barnyardgrass [1, 20]: 80 | Plant response rating, Pigweed [2, 17]: 100 | Plant response rating, Pigweed [2, 18]: 100 | Pigweed plant response rating [2, 19]: 100 | Plant response rating, Pigweed [2, 20]: 100 | Plant response rating, Wheat [3, 17]: 50 | Plant response rating, Wheat [3, 18]: 70 | Plant response rating, Foxtail, Giant [4, 17]: 70 | Plant response rating, Foxtail, Giant [4, 18]: 80 | Foxtail, Giant plant response rating [4, 19]: 80 | Plant response rating, Foxtail, Giant [4, 20]: 100 | Plant response rating, Corn (corn (Zea mays) [5]; [17]): 0 | Plant response rating, Corn (corn (Zea mays) [5]; [18]): 40 | Plant response rating (scale 0 to 100), Galium ([6]; Postemergence, 4 g ai/ha): 10 | Plant response rating (scale 0 to 100), Galium ([6]; Postemergence, 8 g ai/ha): 50 | Galium plant response rating [6, 21]: 70 | Plant response rating, Galium [6, 22]: 70 | Plant response rating, Galium [6, 23]: 80 | Plant response rating, Galium [6, 24]: 80 | Plant response rating, Galium [6, 25]: 85 | Plant response rating (scale 0 to 100), Ryegrass, Italian ([7]; Postemergence, 4 g ai/ha): 0 | Plant response rating (scale 0 to 100), Ryegrass, Italian ([7]; Postemergence, 8 g ai/ha): 0 | Ryegrass, Italian plant response rating [7, 21]: 5 | Plant response rating, Ryegrass, Italian [7, 22]: 0 | Plant response rating, Ryegrass, Italian [7, 23]: 0 | Plant response rating, Ryegrass, Italian [7, 24]: 0 | Plant response rating, Ryegrass, Italian [7, 25]: 5 | Plant response rating (scale 0 to 100), Barnyardgrass ([8]; 4 g ai/ha): 0 | Plant response rating (scale 0 to 100), Barnyardgrass ([8]; 8 g ai/ha): 0 | Barnyardgrass plant response rating ([8]; 16 g ai/ha): 5 | Barnyardgrass plant response rating ([8]; 31 g ai/ha): 5 | Plant response rating, Barnyardgrass ([8]; 4 g ai/ha): 0 | Plant response rating, Barnyardgrass ([8]; 8 g ai/ha): 0 | Plant response rating, Barnyardgrass ([8]; 16 g ai/ha): 0 | Plant response rating, Barnyardgrass ([8]; 31 g ai/ha): 5 | Plant response rating (scale 0 to 100), Morningglory ([9]; Postemergence, 4 g ai/ha): 0 | Plant response rating (scale 0 to 100), Morningglory ([9]; Postemergence, 8 g ai/ha): 5 | Morningglory plant response rating [9, 21]: 35 | Plant response rating, Morningglory [9, 22]: 0 | Plant response rating, Morningglory [9, 23]: 0 | Plant response rating, Morningglory [9, 24]: 0 | Plant response rating, Morningglory [9, 25]: 10 | Plant response rating (scale 0 to 100), Pigweed ([10]; Postemergence, 4 g ai/ha): 35 | Plant response rating (scale 0 to 100), Pigweed ([10]; Postemergence, 8 g ai/ha): 70 | Pigweed plant response rating [10, 21]: 65 | Plant response rating, Pigweed [10, 22]: 20 | Plant response rating, Pigweed [10, 23]: 100 | Plant response rating, Pigweed [10, 24]: 100 | Plant response rating, Pigweed [10, 25]: 100 | Plant response rating (scale 0 to 100), Ragweed ([11]; Postemergence, 4 g ai/ha): 50 | Plant response rating (scale 0 to 100), Ragweed ([11]; Postemergence, 8 g ai/ha): 15 | Ragweed plant response rating [11, 21]: 25 | Plant response rating, Ragweed [11, 22]: 0 | Plant response rating, Ragweed [11, 23]: 0 | Plant response rating, Ragweed [11, 24]: 0 | Plant response rating, Ragweed [11, 25]: 0 | Plant response rating (scale 0 to 100), Foxtail, Giant ([12]; 4 g ai/ha): 0 | Plant response rating (scale 0 to 100), Foxtail, Giant ([12]; 8 g ai/ha): 20 | Foxtail, Giant plant response rating ([12]; 16 g ai/ha): 40 | Foxtail, Giant plant response rating ([12]; 31 g ai/ha): 20 | Plant response rating, Foxtail, Giant ([12]; 4 g ai/ha): 0 | Plant response rating, Foxtail, Giant ([12]; 8 g ai/ha): 0 | Plant response rating, Foxtail, Giant ([12]; 16 g ai/ha): 0 | Plant response rating, Foxtail, Giant ([12]; 31 g ai/ha): 20 | Plant response rating (scale 0 to 100), Blackgrass ([13]; 4 g ai/ha): 0 | Plant response rating (scale 0 to 100), Blackgrass ([13]; 8 g ai/ha): 0 | Blackgrass plant response rating ([13]; 16 g ai/ha): 5 | Blackgrass plant response rating ([13]; 31 g ai/ha): 5 | Plant response rating, Blackgrass ([13]; 4 g ai/ha): 0 | Plant response rating, Blackgrass ([13]; 8 g ai/ha): 0 | Plant response rating, Blackgrass ([13]; 16 g ai/ha): 0 | Plant response rating, Blackgrass ([13]; 31 g ai/ha): 5 | Plant response rating (scale 0 to 100), Lambsquarters ([14]; Postemergence, 4 g ai/ha): 20 | Plant response rating (scale 0 to 100), Lambsquarters ([14]; Postemergence, 8 g ai/ha): 25 | Lambsquarters plant response rating [14, 21]: 55 | Plant response rating, Lambsquarters [14, 22]: 0 | Plant response rating, Lambsquarters [14, 23]: 25 | Plant response rating, Lambsquarters [14, 24]: 100 | Plant response rating, Lambsquarters [14, 25]: 100 | Plant response rating (scale 0 to 100), Corn (corn (Zea mays) [15]; 4 g ai/ha): 0 | Plant response rating (scale 0 to 100), Corn (corn (Zea mays) [15]; 8 g ai/ha): 0 | Corn plant response rating (corn (Zea mays) [15]; 16 g ai/ha): 5 | Corn plant response rating (corn (Zea mays) [15]; 31 g ai/ha): 5 | Plant response rating, Corn (corn (Zea mays) [15]; 4 g ai/ha): 0 | Plant response rating, Corn (corn (Zea mays) [15]; 8 g ai/ha): 0 | Plant response rating, Corn (corn (Zea mays) [15]; 16 g ai/ha): 5 | Plant response rating, Corn (corn (Zea mays) [15]; 31 g ai/ha): 0 | Plant response rating (scale 0 to 100), Waterhemp ([16]; Postemergence, 4 g ai/ha): 20 | Plant response rating (scale 0 to 100), Waterhemp ([16]; Postemergence, 8 g ai/ha): 55 | Waterhemp plant response rating [16, 21]: 75 | Plant response rating, Waterhemp [16, 22]: 0 | Plant response rating, Waterhemp [16, 23]: 70 | Plant response rating, Waterhemp [16, 24]: 100 | Plant response rating, Waterhemp [16, 25]: 100
